pIC50: −log10 of the molar value.
What was measured:
Assay type in all cases: cell-based
HER2 S310F [1] = biological target: T1, HER2 S310F (Homo sapiens, UniProt P04626, S310F); experiment: Activity for inhibiting HER2 (Table B), HER2 S310F; settings: read-out: HER2 S310F, potency code (IC50)
T1 construct: expressed in transfected cells; host or cells: BaF3 (murine pro-B)
Protocol: (§1) EC50 values were determined with the same application.

EGFR WT [2] = biological target: T2, EGFR WT (Homo sapiens, UniProt P00533); experiment: BaF3 cell proliferation assay, EGFR WT (Table A); settings: potency code, 3 days, CellTiterGlo, read-out: EGFR WT (Activity for Inhibiting EGFR)
T2 sequence (P00533 25-1210 N540K): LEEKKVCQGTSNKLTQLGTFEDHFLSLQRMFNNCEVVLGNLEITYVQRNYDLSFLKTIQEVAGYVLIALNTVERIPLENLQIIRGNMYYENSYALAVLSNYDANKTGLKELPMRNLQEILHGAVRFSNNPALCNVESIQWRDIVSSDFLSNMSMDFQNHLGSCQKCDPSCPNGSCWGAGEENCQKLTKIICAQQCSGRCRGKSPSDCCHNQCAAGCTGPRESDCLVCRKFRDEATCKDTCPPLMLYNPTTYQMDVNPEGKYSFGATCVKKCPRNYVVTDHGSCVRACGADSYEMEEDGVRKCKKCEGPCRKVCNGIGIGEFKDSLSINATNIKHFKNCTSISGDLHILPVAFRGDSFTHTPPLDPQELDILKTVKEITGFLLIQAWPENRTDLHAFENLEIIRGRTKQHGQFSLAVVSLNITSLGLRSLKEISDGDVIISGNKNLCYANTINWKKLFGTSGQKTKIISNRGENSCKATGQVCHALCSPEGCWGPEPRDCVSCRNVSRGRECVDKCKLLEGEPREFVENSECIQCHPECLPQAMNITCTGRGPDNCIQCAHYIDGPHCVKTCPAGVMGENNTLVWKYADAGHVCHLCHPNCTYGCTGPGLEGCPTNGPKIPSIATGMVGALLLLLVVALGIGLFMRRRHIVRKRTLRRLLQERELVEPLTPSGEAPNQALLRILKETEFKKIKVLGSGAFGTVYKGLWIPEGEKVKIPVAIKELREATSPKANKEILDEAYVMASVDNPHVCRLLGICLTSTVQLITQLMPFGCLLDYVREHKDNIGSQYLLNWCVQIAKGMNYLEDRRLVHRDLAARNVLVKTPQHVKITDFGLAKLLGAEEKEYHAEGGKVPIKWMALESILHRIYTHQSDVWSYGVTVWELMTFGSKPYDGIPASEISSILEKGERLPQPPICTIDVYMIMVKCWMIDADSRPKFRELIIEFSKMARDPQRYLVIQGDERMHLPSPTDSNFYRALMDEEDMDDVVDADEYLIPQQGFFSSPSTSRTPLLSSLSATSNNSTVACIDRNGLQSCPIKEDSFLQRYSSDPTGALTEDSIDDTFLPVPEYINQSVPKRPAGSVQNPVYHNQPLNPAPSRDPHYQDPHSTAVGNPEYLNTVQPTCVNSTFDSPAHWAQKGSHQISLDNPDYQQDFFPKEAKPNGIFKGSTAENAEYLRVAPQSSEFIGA
In short: (§2)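 Readout: EC50 for BaF3 proliferation. Cells stably expressing the receptor variant were generated by retrovirus and IL-3 independence.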

EGFR V3 [3] = biological target: T3, EGFR V3 (Homo sapiens, UniProt P00533, DELINS30-297G); experiment: BaF3 cell proliferation assay, EGFR V3 (Table A); settings: potency code, 3 days, CellTiterGlo, read-out: EGFR V3 (Activity for Inhibiting EGFR)
T3 construct: expressed in transfected cells; host or cells: BaF3 (murine pro-B), retroviral pMXs-IRES-Blasticidin
T3 sequence (P00533 with tags, fused parts or gaps DELINS30-297G): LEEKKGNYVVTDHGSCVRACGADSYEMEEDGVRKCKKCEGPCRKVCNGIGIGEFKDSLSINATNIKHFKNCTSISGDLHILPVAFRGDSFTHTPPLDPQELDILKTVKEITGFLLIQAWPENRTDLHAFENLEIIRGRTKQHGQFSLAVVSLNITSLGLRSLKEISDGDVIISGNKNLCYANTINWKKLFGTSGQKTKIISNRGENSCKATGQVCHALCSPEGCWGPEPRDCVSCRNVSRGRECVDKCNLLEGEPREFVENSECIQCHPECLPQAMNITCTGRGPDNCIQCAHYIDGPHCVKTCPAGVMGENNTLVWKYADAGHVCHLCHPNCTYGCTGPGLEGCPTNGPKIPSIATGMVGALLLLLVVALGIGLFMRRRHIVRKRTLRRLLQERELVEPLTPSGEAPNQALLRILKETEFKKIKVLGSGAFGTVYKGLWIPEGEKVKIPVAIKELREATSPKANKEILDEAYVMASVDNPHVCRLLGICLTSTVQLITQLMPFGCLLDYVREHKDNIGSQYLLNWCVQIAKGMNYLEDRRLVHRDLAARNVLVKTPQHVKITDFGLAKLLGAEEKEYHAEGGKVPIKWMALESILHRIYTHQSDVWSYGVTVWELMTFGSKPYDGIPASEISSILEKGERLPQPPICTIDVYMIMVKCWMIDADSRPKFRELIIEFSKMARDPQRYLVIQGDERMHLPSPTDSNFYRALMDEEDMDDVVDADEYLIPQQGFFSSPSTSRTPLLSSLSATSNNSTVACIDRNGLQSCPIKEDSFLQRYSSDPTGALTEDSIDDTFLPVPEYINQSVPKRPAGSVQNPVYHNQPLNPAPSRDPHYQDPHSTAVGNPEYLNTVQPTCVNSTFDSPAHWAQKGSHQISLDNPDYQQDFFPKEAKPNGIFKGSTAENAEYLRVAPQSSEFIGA
In short: as §2

EGFR WT [4] = biological target: T2, EGFR WT; experiment: Activity for inhibiting EGFR (Table A), EGFR WT; settings: read-out: EGFR WT, potency code (IC50)
HER2 S310F [5] = biological target: T1, HER2 S310F; experiment: BaF3 cell proliferation assay, HER2 S310F (Table B); settings: potency code, 3 days, CellTiterGlo, read-out: HER2 S310F (Activity for Inhibiting HER2)
HER2 YVMA [6] = biological target: T4, HER2 YVMA (Homo sapiens, UniProt P04626, INS775YVMA); experiment: BaF3 cell proliferation assay, HER2 YVMA (Table B); settings: potency code, 3 days, CellTiterGlo, read-out: HER2 YVMA (Activity for Inhibiting HER2)
T4 construct: expressed in transfected cells; host or cells: BaF3 (murine pro-B)
T4 sequence (P04626 with tags, fused parts or gaps INS775YVMA): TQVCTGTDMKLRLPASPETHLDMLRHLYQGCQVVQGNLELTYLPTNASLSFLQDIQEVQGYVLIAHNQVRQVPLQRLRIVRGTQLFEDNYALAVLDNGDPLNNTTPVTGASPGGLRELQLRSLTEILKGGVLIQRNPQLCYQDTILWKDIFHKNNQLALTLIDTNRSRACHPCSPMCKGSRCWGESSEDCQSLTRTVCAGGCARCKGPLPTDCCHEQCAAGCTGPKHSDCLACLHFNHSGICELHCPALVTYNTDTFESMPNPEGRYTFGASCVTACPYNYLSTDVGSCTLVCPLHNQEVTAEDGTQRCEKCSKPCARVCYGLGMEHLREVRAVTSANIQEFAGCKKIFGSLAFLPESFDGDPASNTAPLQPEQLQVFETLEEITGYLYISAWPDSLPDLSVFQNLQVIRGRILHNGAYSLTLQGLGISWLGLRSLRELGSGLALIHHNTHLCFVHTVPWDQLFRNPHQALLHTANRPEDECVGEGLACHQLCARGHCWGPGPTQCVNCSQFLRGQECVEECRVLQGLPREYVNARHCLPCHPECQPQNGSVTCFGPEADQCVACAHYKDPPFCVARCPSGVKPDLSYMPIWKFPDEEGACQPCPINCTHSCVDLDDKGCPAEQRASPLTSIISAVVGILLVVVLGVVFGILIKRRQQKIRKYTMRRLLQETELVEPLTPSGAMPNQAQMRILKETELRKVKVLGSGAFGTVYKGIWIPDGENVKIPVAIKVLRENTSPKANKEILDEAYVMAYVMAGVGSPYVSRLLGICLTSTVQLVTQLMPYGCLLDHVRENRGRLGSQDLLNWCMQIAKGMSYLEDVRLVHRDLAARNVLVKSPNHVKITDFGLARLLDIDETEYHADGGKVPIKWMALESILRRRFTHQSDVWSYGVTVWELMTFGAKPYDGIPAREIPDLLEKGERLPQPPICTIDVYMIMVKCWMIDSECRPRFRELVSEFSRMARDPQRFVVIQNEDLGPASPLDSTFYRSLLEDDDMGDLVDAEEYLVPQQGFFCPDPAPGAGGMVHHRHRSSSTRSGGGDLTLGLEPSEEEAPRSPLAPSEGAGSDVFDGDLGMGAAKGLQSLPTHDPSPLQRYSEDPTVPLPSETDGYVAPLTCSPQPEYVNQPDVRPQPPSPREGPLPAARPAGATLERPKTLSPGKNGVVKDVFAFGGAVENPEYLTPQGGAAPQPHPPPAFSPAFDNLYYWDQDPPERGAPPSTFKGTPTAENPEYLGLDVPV

HER2 YVMA [7] = biological target: T4, HER2 YVMA; experiment: Activity for inhibiting HER2 (Table B), HER2 YVMA; settings: read-out: HER2 YVMA, potency code (IC50)
Protocol: as §1

EGFR V3 [8] = biological target: T3, EGFR V3; experiment: Activity for inhibiting EGFR (Table A), EGFR V3 (EGFR-Viii); settings: read-out: EGFR V3, potency code (IC50)

T1 sequence (P04626 23-1255 S310F): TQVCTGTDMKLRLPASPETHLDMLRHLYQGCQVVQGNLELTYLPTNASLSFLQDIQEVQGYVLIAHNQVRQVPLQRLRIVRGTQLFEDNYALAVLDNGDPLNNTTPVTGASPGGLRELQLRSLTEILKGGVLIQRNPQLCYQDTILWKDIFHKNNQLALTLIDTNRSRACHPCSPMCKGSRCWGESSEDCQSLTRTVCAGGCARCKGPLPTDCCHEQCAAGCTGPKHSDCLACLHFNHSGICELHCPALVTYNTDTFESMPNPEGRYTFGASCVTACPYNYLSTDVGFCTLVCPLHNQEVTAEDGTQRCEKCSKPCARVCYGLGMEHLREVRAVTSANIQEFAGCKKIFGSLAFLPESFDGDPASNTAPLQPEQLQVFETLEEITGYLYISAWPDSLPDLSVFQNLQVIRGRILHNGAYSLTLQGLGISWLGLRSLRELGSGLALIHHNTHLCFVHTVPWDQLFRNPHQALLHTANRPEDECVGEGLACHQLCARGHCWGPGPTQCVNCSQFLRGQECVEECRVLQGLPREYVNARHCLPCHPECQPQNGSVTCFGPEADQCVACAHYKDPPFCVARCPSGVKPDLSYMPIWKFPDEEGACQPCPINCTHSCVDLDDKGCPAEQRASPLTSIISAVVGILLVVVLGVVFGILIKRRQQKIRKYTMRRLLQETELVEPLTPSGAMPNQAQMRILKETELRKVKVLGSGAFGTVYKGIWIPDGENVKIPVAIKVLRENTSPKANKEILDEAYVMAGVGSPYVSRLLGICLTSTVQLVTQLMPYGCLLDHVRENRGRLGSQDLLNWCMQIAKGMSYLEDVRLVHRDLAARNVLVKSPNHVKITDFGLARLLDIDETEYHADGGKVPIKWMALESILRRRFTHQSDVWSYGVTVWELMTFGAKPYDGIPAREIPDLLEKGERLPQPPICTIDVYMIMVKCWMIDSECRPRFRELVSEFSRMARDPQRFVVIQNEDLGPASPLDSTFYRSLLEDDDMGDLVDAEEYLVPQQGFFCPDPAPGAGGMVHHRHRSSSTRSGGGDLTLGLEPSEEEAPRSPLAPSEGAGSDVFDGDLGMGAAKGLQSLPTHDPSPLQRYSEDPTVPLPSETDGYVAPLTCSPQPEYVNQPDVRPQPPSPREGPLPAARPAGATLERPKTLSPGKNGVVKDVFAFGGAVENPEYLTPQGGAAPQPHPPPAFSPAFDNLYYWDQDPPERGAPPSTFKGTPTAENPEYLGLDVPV

| SMILES | pIC50 (HER2 S310F [1]) | pIC50 (EGFR WT [2]) | pIC50 (EGFR V3 [3]) | pIC50 (EGFR WT [4]) | pIC50 (HER2 S310F [5]) | pIC50 (HER2 YVMA [6]) | pIC50 (HER2 YVMA [7]) | pIC50 (EGFR V3 [8]) |
| --- | --- | --- | --- | --- | --- | --- | --- | --- |
| C=CC(=O)Nc1cc2c(Nc3ccc(OCc4cccc(F)n4)c(Cl)c3)ncnc2cc1OCCCN1C[C@H]2C[C@@H]1CO2 [compound 162] | 7.30 to 7.52 | 6.30 to 6.52 | 7.30 to 7.52 | 6.30 to 6.52 | 7.30 to 7.52 | 6.70 to 7.00 | 6.70 to 7.00 | 7.30 to 7.52 |
| C=CC(=O)Nc1cc2c(Nc3ccc(OCc4ccncn4)c(Cl)c3)ncnc2cc1OCCCN1CCOCC1 [compound 163] | 7.30 to 7.52 | < 6.00 | 7.00 to 7.30 | < 6.00 | 7.30 to 7.52 | 6.70 to 7.00 | 6.70 to 7.00 | 7.00 to 7.30 |
| CC#CC(=O)Nc1cc2c(Nc3ccc(OCc4ccncn4)c(Cl)c3)ncnc2cc1OCCCN1CCOCC1 [compound 164, N-(4-((3-chloro-4-(pyrimidin-4-ylmethoxy)phenyl)amino)-7-(3-morpholinopropoxy)quinazolin-6-yl)but-2-ynamide] | 7.30 to 7.52 | 6.30 to 6.52 | 7.00 to 7.30 | 6.30 to 6.52 | 7.30 to 7.52 | 6.70 to 7.00 | 6.70 to 7.00 | 7.00 to 7.30 |
| CC#CC(=O)Nc1cc2c(Nc3ccc(OCc4cccnn4)c(Cl)c3)ncnc2cc1OCCCN1CCOCC1 [compound 165, N-(4-((3-chloro-4-(pyridazin-3-ylmethoxy)phenyl)amino)-7-(3-morpholinopropoxy)quinazolin-6-yl)but-2-ynamide] | 7.70 to 8.00 | 6.70 to 7.00 | 7.30 to 7.52 | 6.70 to 7.00 | 7.70 to 8.00 | 7.00 to 7.30 | 7.00 to 7.30 | 7.30 to 7.52 |
| C=CC(=O)Nc1cc2c(Nc3ccc(OCc4ncccn4)c(Cl)c3)ncnc2cc1OCCCN1CCOCC1 [compound 166] | 7.30 to 7.52 | < 6.00 | 7.30 to 7.52 | < 6.00 | 7.30 to 7.52 | 6.70 to 7.00 | 6.70 to 7.00 | 7.30 to 7.52 |
| C=CC(=O)Nc1cc2c(Nc3ccc(OCc4cccnn4)c(Cl)c3)ncnc2cc1OCCCN1CCOCC1 [compound 167] | 7.70 to 8.00 | < 6.00 | 7.30 to 7.52 | < 6.00 | 7.70 to 8.00 | 7.00 to 7.30 | 7.00 to 7.30 | 7.30 to 7.52 |
| CC#CC(=O)Nc1cc2c(Nc3ccc(OCc4ncccn4)c(Cl)c3)ncnc2cc1OCCCN1CCOCC1 [compound 168, N-(4-((3-chloro-4-(pyrimidin-2-ylmethoxy)phenyl)amino)-7-(3-morpholinopropoxy)quinazolin-6-yl)but-2-ynamide] | 7.52 to 7.70 | 6.52 to 6.70 | 7.30 to 7.52 | 6.52 to 6.70 | 7.52 to 7.70 | 7.00 to 7.30 | 7.00 to 7.30 | 7.30 to 7.52 |
| C=CC(=O)Nc1cc2c(Nc3ccc(OCc4cnccn4)c(Cl)c3)ncnc2cc1OCCCN1CCOCC1 [compound 169] | 7.70 to 8.00 | < 6.00 | 7.30 to 7.52 | < 6.00 | 7.70 to 8.00 | 7.30 to 7.52 | 7.30 to 7.52 | 7.30 to 7.52 |
| CC#CC(=O)Nc1cc2c(Nc3ccc(OCc4cnccn4)c(Cl)c3)ncnc2cc1OCCCN1CCOCC1 [compound 170, N-(4-((3-chloro-4-(pyrazin-2-ylmethoxy)phenyl)amino)-7-(3-morpholinopropoxy)quinazolin-6-yl)but-2-ynamide] | 8.00 to 8.30 | 6.52 to 6.70 | 7.30 to 7.52 | 6.52 to 6.70 | 8.00 to 8.30 | 7.70 to 8.00 | 7.70 to 8.00 | 7.30 to 7.52 |
| C=CC(=O)Nc1cc2c(Nc3ccc(OCc4cccnn4)c(Cl)c3)ncnc2cc1OCCN1CCOCC1 [compound 171] | 7.00 to 7.30 | < 6.00 | 7.00 to 7.30 | < 6.00 | 7.00 to 7.30 | 6.30 to 6.52 | 6.30 to 6.52 | 7.00 to 7.30 |
| C=CC(=O)Nc1cc2c(Nc3ccc(OCc4cccnn4)c(Cl)c3)ncnc2cc1OCCN1CCN(C)CC1 [compound 172] | 7.00 to 7.30 | 6.00 to 6.30 | 6.70 to 7.00 | 6.00 to 6.30 | 7.00 to 7.30 | 6.30 to 6.52 | 6.30 to 6.52 | 6.70 to 7.00 |
| C=CC(=O)Nc1cc2c(Nc3ccc(OCc4cccnn4)c(Cl)c3)ncnc2cc1OCCN1CC2CCC(C1)O2 [compound 173] | 7.30 to 7.52 | < 6.00 | 7.00 to 7.30 | < 6.00 | 7.30 to 7.52 | 6.52 to 6.70 | 6.52 to 6.70 | 7.00 to 7.30 |
| C=CC(=O)Nc1cc2c(Nc3ccc(OCc4cccnn4)c(Cl)c3)ncnc2cc1OCCN1CC(OC)C1 [compound 174] | 7.00 to 7.30 | < 6.00 | 7.00 to 7.30 | < 6.00 | 7.00 to 7.30 | 6.30 to 6.52 | 6.30 to 6.52 | 7.00 to 7.30 |
| C=CC(=O)Nc1cc2c(Nc3ccc(OCc4cnccn4)c(Cl)c3)ncnc2cc1OCCN1CC2CCC(C1)O2 [compound 175] | 7.52 to 7.70 | < 6.00 | 7.30 to 7.52 | < 6.00 | 7.52 to 7.70 | 6.70 to 7.00 | 6.70 to 7.00 | 7.30 to 7.52 |
| C=CC(=O)Nc1cc2c(Nc3ccc(OCc4cnccn4)c(Cl)c3)ncnc2cc1OCCN1CCOCC1 [compound 176] | 7.52 to 7.70 | < 6.00 | 7.30 to 7.52 | < 6.00 | 7.52 to 7.70 | 6.70 to 7.00 | 6.70 to 7.00 | 7.30 to 7.52 |
| C=CC(=O)Nc1cc2c(Nc3ccc(OCc4cccnn4)c(Cl)c3)ncnc2cc1OCCCN1CC(OC)C1 [compound 177] | 7.70 to 8.00 | 6.00 to 6.30 | 7.30 to 7.52 | 6.00 to 6.30 | 7.70 to 8.00 | 7.00 to 7.30 | 7.00 to 7.30 | 7.30 to 7.52 |
| C=CC(=O)Nc1cc2c(Nc3ccc(OCc4cnccn4)c(Cl)c3)ncnc2cc1OCCN1CC(OC)C1 [compound 178] | 7.30 to 7.52 | < 6.00 | 7.30 to 7.52 | < 6.00 | 7.30 to 7.52 | 6.70 to 7.00 | 6.70 to 7.00 | 7.30 to 7.52 |
| C=CC(=O)Nc1cc2c(Nc3ccc(OCc4cnccn4)c(Cl)c3)ncnc2cc1OCCCN1CC(OC)C1 [compound 179] | 7.70 to 8.00 | 6.00 to 6.30 | 7.30 to 7.52 | 6.00 to 6.30 | 7.70 to 8.00 | 7.30 to 7.52 | 7.30 to 7.52 | 7.30 to 7.52 |
| C=CC(=O)Nc1cc2c(Nc3ccc(OCc4cnccn4)c(Cl)c3)ncnc2cc1OCCN1CCN(C)CC1 [compound 180] | 7.52 to 7.70 | 6.00 to 6.30 | 7.30 to 7.52 | 6.00 to 6.30 | 7.52 to 7.70 | 6.70 to 7.00 | 6.70 to 7.00 | 7.30 to 7.52 |
